According to patent publication US12599136B2, “Substituted isophthalic acid diamides and their use as herbicides” (Bayer Aktiengesellschaft, priority 2020, dated 2026):

Assays:
Assay type in all cases: in vivo
Viola tricolor [1] = test: Pre-emergence herbicidal action against VIOTR
Method in brief: (§1)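 Pre-emergence soil-surface spray of formulated compound (WP or EC; 600 to 800 l/ha; 0.2% wetting agent) over seeds sown in sandy loam. After 3 weeks under greenhouse conditions, damage is estimated visually in percent against untreated plants.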

Abutilon theophrasti [2] = test: Pre-emergence herbicidal action against ABUTH; conditions: visual score after 3 weeks vs untreated controls
Method in brief: as §1

Abutilon theophrasti [3] = test: Post-emergence herbicidal action against ABUTH
Method in brief: (§2)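 Greenhouse plants in sandy loam were sprayed at the one-leaf stage, 2 to 3 weeks after sowing, with WP or EC formulations as aqueous suspension or emulsion (600 to 800 l/ha water, 0.2% wetting agent). Visual damage was scored about 3 weeks later versus untreated controls, 0% = like control, 100% = dead.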

Veronica persica [4] = test: Post-emergence herbicidal action against VERPE; conditions: 80 g/ha, visual assessment about 3 weeks after treatment
Method in brief: as §2

Stellaria media [5] = test: Pre-emergence herbicidal action against STEME
Method in brief: as §1

Echinochloa crus-galli [6] = test: Pre-emergence herbicidal action against ECHCG; conditions: visual score after 3 weeks vs untreated controls
Method in brief: as §1

Amaranthus retroflexus [7] = test: Pre-emergence herbicidal action against AMARE; conditions: visual score after 3 weeks vs untreated controls
Method in brief: as §1

Echinochloa crus-galli [8] = test: Post-emergence herbicidal action against ECHCG; conditions: visual assessment about 3 weeks after treatment
Method in brief: as §2

Pharbitis purpurea [9] = test: Post-emergence herbicidal action against PHBPU; conditions: visual assessment about 3 weeks after treatment
Method in brief: as §2

Polygonum convolvulus [10] = test: Post-emergence herbicidal action against POLCO; conditions: visual assessment about 3 weeks after treatment
Method in brief: as §2

Lolium rigidum [11] = test: Pre-emergence herbicidal action against LOLRI
Method in brief: as §1

Alopecurus myosuroides [12] = test: Post-emergence herbicidal action against ALOMY; conditions: 80 g/ha
Method in brief: as §2

Setaria viridis [13] = test: Post-emergence herbicidal action against SETVI; conditions: 80 g/ha, visual assessment about 3 weeks after treatment
Method in brief: as §2

Pharbitis purpurea [14] = test: Pre-emergence herbicidal action against PHBPU; conditions: 320 g/ha; visual score after 3 weeks vs untreated controls
Method in brief: as §1

Amaranthus retroflexus [15] = test: Post-emergence herbicidal action against AMARE; conditions: visual assessment about 3 weeks after treatment
Method in brief: as §2

Polygonum convolvulus [16] = test: Pre-emergence herbicidal action against POLCO
Method in brief: as §1

Veronica persica [17] = test: Pre-emergence herbicidal action against VERPE; conditions: 320 g/ha
Method in brief: as §1

Alopecurus myosuroides [18] = test: Pre-emergence herbicidal action against ALOMY; conditions: 320 g/ha; visual score after 3 weeks vs untreated controls
Method in brief: as §1

Stellaria media [19] = test: Post-emergence herbicidal action against STEME; conditions: visual assessment about 3 weeks after treatment
Method in brief: as §2

Matricaria inodora [20] = test: Pre-emergence herbicidal action against MATIN; conditions: visual score after 3 weeks vs untreated controls
Method in brief: as §1

Avena fatua [21] = test: Post-emergence herbicidal action against AVEFA; conditions: visual assessment about 3 weeks after treatment
Method in brief: as §2

Cyperus esculentus = test: Pre-emergence herbicidal action against CYPES; conditions: visual score after 3 weeks vs untreated controls
Method in brief: as §1

Viola tricolor [22] = test: Post-emergence herbicidal action against VIOTR
Method in brief: as §2

Avena fatua [23] = test: Pre-emergence herbicidal action against AVEFA; conditions: visual score after 3 weeks vs untreated controls
Method in brief: as §1

Setaria viridis [24] = test: Pre-emergence herbicidal action against SETVI
Method in brief: as §1

Matricaria inodora [25] = test: Post-emergence herbicidal action against MATIN; conditions: visual assessment about 3 weeks after treatment
Method in brief: as §2

Hordeum murinum = test: Pre-emergence herbicidal action against HORMU; conditions: 320 g/ha; visual score after 3 weeks vs untreated controls
Method in brief: as §1

Lolium rigidum [26] = test: Post-emergence herbicidal action against LOLRI; conditions: 80 g/ha
Method: Seeds of monocotyledonous and dicotyledonous weed and crop plants are laid out in sandy loam soil in wood-fiber pots, covered with soil and cultivated in a greenhouse under good growth conditions. 2 to 3 weeks after sowing, the test plants are treated at the one-leaf stage. The compounds of the invention, formulated in the form of wettable powders (WP) or as emulsion concentrates (EC), are then sprayed onto the green parts of the plants in the form of an aqueous suspension or emulsion at a water application rate equivalent to 600 to 800 l/ha, with addition of 0.2% wetting agent. After the test plants have been left to stand in the greenhouse under optimal growth conditions for about 3 weeks, the action of the preparations is assessed visually in comparison to untreated controls (herbicidal action in percent (%): 100% activity=the plants have died, 0% activity=like control plants). […] The tables below illustrate, in an illustrative manner, the post-emergence herbicidal action of the compounds of the invention, the herbicidal activity being stated in percent.

With `CCn1nnnc1NC(=O)c1ccc(C(F)(F)F)c(C(=O)n2cccn2)c1Cl` [Example 2-153] the “Pre-emergence action against VIOTR” value (Viola tricolor [1]; 80 g/ha) was 100%, the “Pre-emergence action against VIOTR” value (Viola tricolor [1]; 320 g/ha) was 100% and the “Pre-emergence action against ABUTH” value (Abutilon theophrasti [2]; 20 g/ha) was 100%. For the same molecule, the “Pre-emergence action against ABUTH” value (Abutilon theophrasti [2]; 80 g/ha) was 100%, the “Pre-emergence action against ABUTH” value (Abutilon theophrasti [2]; Dosage column 320 g/ha (heading prints 3200 g/ha)) was 100% and the “Post-emergence action against ABUTH” value (Abutilon theophrasti [3]; 5 g/ha) was 80%. The “Post-emergence action against ABUTH” value (Abutilon theophrasti [3]; 20 g/ha) was 90%, the “Post-emergence action against ABUTH” value (Abutilon theophrasti [3]; 80 g/ha) was 100% and the “Post-emergence action against VERPE in %” value (Veronica persica [4]) was 80%. For the same molecule, the “Pre-emergence action against STEME” value (Stellaria media [5]; 20 g/ha) was 90%, the “Pre-emergence action against STEME” value (Stellaria media [5]; 80 g/ha) was 100% and the “Pre-emergence action against STEME” value (Stellaria media [5]; 320 g/ha) was 100%. The “Pre-emergence action against ECHCG” value (Echinochloa crus-galli [6]; 80 g/ha) was 100%, the “Pre-emergence action against ECHCG” value (Echinochloa crus-galli [6]; 320 g/ha) was 100% and the “Pre-emergence action against AMARE” value (Amaranthus retroflexus [7]; 20 g/ha) was 100%. For the same molecule, the “Pre-emergence action against AMARE” value (Amaranthus retroflexus [7]; 80 g/ha) was 100%, the “Pre-emergence action against AMARE” value (Amaranthus retroflexus [7]; 320 g/ha) was 100% and the “Post-emergence action against ECHCG in %” value (Echinochloa crus-galli [8]; 5 g/ha) was 80%. For the same molecule, the “Post-emergence action against ECHCG in %” value (Echinochloa crus-galli [8]; 20 g/ha) was 80%, the “Post-emergence action against ECHCG in %” value (Echinochloa crus-galli [8]; 80 g/ha) was 90% and the “Post-emergence action against PHBPU in %” value (Pharbitis purpurea [9]; 20 g/ha) was 80%. For the same molecule, the “Post-emergence action against PHBPU in %” value (Pharbitis purpurea [9]; 80 g/ha) was 90%, the “Post-emergence action against POLCO in %” value (Polygonum convolvulus [10]; 20 g/ha) was 90% and the “Post-emergence action against POLCO in %” value (Polygonum convolvulus [10]; 80 g/ha) was 100%. For the same molecule, the “Pre-emergence action against LOLRI” value (Lolium rigidum [11]; 80 g/ha) was 80%, the “Pre-emergence action against LOLRI” value (Lolium rigidum [11]; 320 g/ha) was 90% and the “Post-emergence action against ALOMY” value (Alopecurus myosuroides [12]) was 90%. The “Post-emergence action against SETVI in %” value (Setaria viridis [13]) was 100%, the “Pre-emergence action against PHBPU” value (Pharbitis purpurea [14]) was 100% and the “Post-emergence action against AMARE in %” value (Amaranthus retroflexus [15]; 5 g/ha) was 100%. The “Post-emergence action against AMARE in %” value (Amaranthus retroflexus [15]; 20 g/ha) was 100%, the “Post-emergence action against AMARE in %” value (Amaranthus retroflexus [15]; 80 g/ha) was 100% and the “Pre-emergence action against POLCO” value (Polygonum convolvulus [16]; 80 g/ha) was 80%. For the same molecule, the “Pre-emergence action against POLCO” value (Polygonum convolvulus [16]; 320 g/ha) was 100%, the “Pre-emergence action against VERPE” value (Veronica persica [17]) was 90% and the “Pre-emergence action against ALOMY” value (Alopecurus myosuroides [18]) was 90%. The “Post-emergence action against STEME in %” value (Stellaria media [19]; 5 g/ha) was 100%, the “Post-emergence action against STEME in %” value (Stellaria media [19]; 20 g/ha) was 100% and the “Post-emergence action against STEME in %” value (Stellaria media [19]; 80 g/ha) was 100%. The “Pre-emergence action against MATIN” value (Matricaria inodora [20]; 20 g/ha) was 100%, the “Pre-emergence action against MATIN” value (Matricaria inodora [20]; 80 g/ha) was 100% and the “Pre-emergence action against MATIN” value (Matricaria inodora [20]; 320 g/ha) was 100%. The “Post-emergence action against AVEFA in %” value (Avena fatua [21]; 20 g/ha) was 90%, the “Post-emergence action against AVEFA in %” value (Avena fatua [21]; 80 g/ha) was 100% and the “Pre-emergence action against CYPES” value (Cyperus esculentus; 80 g/ha) was 100%. The “Pre-emergence action against CYPES” value (Cyperus esculentus; 320 g/ha) was 100%, the “Post-emergence action against VIOTR in %” value (Viola tricolor [22]; 5 g/ha) was 90% and the “Post-emergence action against VIOTR in %” value (Viola tricolor [22]; 20 g/ha) was 90%. The “Post-emergence action against VIOTR in %” value (Viola tricolor [22]; 80 g/ha) was 100%, the “Pre-emergence action against AVEFA” value (Avena fatua [23]; 80 g/ha) was 100% and the “Pre-emergence action against AVEFA” value (Avena fatua [23]; 320 g/ha) was 100%. The “Pre-emergence action against SETVI” value (Setaria viridis [24]; 20 g/ha) was 90%, the “Pre-emergence action against SETVI” value (Setaria viridis [24]; 80 g/ha) was 100% and the “Pre-emergence action against SETVI” value (Setaria viridis [24]; 320 g/ha) was 100%. For the same molecule, the “Post-emergence action against MATIN in %” value (Matricaria inodora [25]; 5 g/ha) was 90%, the “Post-emergence action against MATIN in %” value (Matricaria inodora [25]; 20 g/ha) was 100% and the “Post-emergence action against MATIN in %” value (Matricaria inodora [25]; 80 g/ha) was 100%. The “Pre-emergence action against HORMU” value (Hordeum murinum) was 90% and the “Post-emergence action against LOLRI in %” value (Lolium rigidum [26]) was 80%.
